Measurements from ChEMBL document CHEMBL4725399, “Galangin ameliorated pulmonary fibrosis in vivo and in vitro by regulating epithelial-mesenchymal transition” (Bioorg Med Chem, 2020).
The source made the active and inactive calls. The rule behind the calls is not given here.

Legend:
[1] = test system: A549; assay: Cytotoxicity against human A549 cells assessed as reduction in cell viability after 24 to 72 hrs by MTT assay; format: functional, cell-based; conditions: time hrs 24-72
[2] = test system: Mus musculus; assay: Antifibrotic activity in C57BL/6 mouse model of bleomycin-induced lung fibrosis assessed as inhibition of pathological changes by measuring inflammatory infiltration in lung tissue at 25 to 50 mg/kg dosed via oral gavage for 14 days by Masson's trichrome staining-based histopathological analysis; format: functional, organism-based; conditions: dose mg/kg 25-50, time 14.0 day
[3] = test system: Mus musculus; assay: Antifibrotic activity in C57BL/6 mouse model of bleomycin-induced lung fibrosis assessed as inhibition of pathological changes by measuring collagen deposition in lung tissue at 25 to 50 mg/kg dosed via oral gavage for 14 days by Masson's trichrome staining-based histopathological analysis; format: functional, organism-based; conditions: dose mg/kg 25-50, time 14.0 day
[4] = test system: Mus musculus; assay: Antifibrotic activity in C57BL/6 mouse model of bleomycin-induced lung fibrosis assessed as inhibition of pathological changes by measuring inflammatory infiltration in lung tissue at 25 to 50 mg/kg dosed via oral gavage for 14 days by H and E staining-based histopathological analysis; format: functional, organism-based; conditions: dose mg/kg 25-50, time 14.0 day
[5] = test system: A549; assay: Down regulation of vimentin protein expression in human A549 cells at 50 uM by Western blotting analysis; format: functional, cell-based; conditions: time 24.0 hrs
[6] = test system: Mus musculus; assay: Antifibrotic activity in C57BL/6 mouse model of bleomycin-induced lung fibrosis assessed as reduction in dendritic cells at 50 mg/kg dosed via oral gavage for 14 days by flow cytometry analysis; format: functional, organism-based; conditions: time 14.0 day
[7] = test system: Mus musculus; assay: Antifibrotic activity in bleomycin-induced C57BL/6 mouse model of lung fibrosis assessed as reduction in Ashcroft score at 25 to 50 mg/kg dosed via oral gavage for 14 days by H and E and Masson's trichrome staining based histopathological analysis; format: functional, organism-based; conditions: dose mg/kg 25-50, time 14.0 day
[8] = test system: Mus musculus; assay: Inhibition of epithelial-mesenchymal transition in C57BL/6 mouse model of bleomycin-induced lung fibrosis assessed as increase in E-cadherin protein expression in lung tissue at 25 to 50 mg/kg dosed via oral gavage for 14 days by Western blotting analysis; format: functional, organism-based; conditions: dose mg/kg 25-50, time 14.0 day
[9] = test system: NIH3T3; assay: Antifibrotic activity in mouse NIH3T3 cells assessed as decrease in TGF-beta1 induced MMP-9 protein expression at 40 uM after 24 hrs by Western blotting analysis; format: functional, cell-based
[10] = test system: Mus musculus; assay: Inhibition of epithelial-mesenchymal transition in C57BL/6 mouse model of bleomycin-induced lung fibrosis assessed as decrease in alpha-SMA protein expression in lung tissue at 25 to 50 mg/kg dosed via oral gavage for 14 days by Western blotting analysis; format: functional, organism-based; conditions: dose mg/kg 25-50, time 14.0 day
[11] = test system: Mus musculus; assay: Antifibrotic activity in C57BL/6 mouse model of bleomycin-induced lung fibrosis assessed as inhibition of pathological changes by measuring collagen deposition in lung tissue at 25 to 50 mg/kg dosed via oral gavage for 14 days by H and E staining-based histopathological analysis; format: functional, organism-based; conditions: dose mg/kg 25-50, time 14.0 day
[12] = test system: Mus musculus; assay: Antifibrotic activity in C57BL/6 mouse model of bleomycin-induced lung fibrosis assessed as reduction in CD4+CD69+ T-cells at 25 mg/kg dosed via oral gavage for 14 days by flow cytometry analysis; format: functional, organism-based; conditions: dose 25.0 […], time 14.0 day
[13] = test system: Mus musculus; assay: Inhibition of epithelial-mesenchymal transition in C57BL/6 mouse model of bleomycin-induced lung fibrosis assessed as decrease in vimentin protein expression in lung tissue at 25 to 50 mg/kg dosed via oral gavage for 14 days by Western blotting analysis; format: functional, organism-based; conditions: dose mg/kg 25-50, time 14.0 day
[14] = test system: Mus musculus; assay: Antifibrotic activity in C57BL/6 mouse model of bleomycin-induced lung fibrosis assessed as reduction in CD4+CD69+ T-cells at 50 mg/kg dosed via oral gavage for 14 days by flow cytometry analysis; format: functional, organism-based; conditions: time 14.0 day
[15] = test system: NIH3T3; assay: Antifibrotic activity in mouse NIH3T3 cells assessed as decrease in TGF-beta1 induced alpha-SMA protein expression at 40 uM after 24 hrs by Western blotting analysis; format: functional, cell-based
[16] = test system: NIH3T3; assay: Antifibrotic activity in mouse NIH3T3 cells assessed as up regulation of TGF-beta1 inhibited E-cadherin protein expression at 40 uM after 24 hrs by Western blotting analysis; format: functional, cell-based
[17] = test system: NIH3T3; assay: Cytotoxicity against mouse NIH3T3 cells assessed as reduction in cell viability after 24 to 72 hrs by MTT assay; format: cell-based; conditions: time 24-72 hrs
[18] = test system: A549; assay: Inhibition of cell migration in TGF-beta-stimulated human A549 cells at 50 uM after 24 hrs by optical microscopic based wound healing assay; format: functional
[19] = test system: A549; assay: Up regulation of E-cadherin level in TGF-beta-stimulated human A549 cells at 50 uM by Western blot analysis; format: functional, cell-based; conditions: time 24.0 hrs
[20] = test system: Mus musculus; assay: Antifibrotic activity in C57BL/6 mouse model of bleomycin-induced lung fibrosis assessed as reduction in weight loss at 25 mg/kg dosed via oral gavage and measured for 7 to 14 days; format: functional, organism-based; conditions: time day 7-14
[21] = test system: A549; assay: Down regulation of alpha-SMA protein expression in human A549 cells at 50 uM by Western blotting analysis; format: functional, cell-based; conditions: time 24.0 hrs
[22] = test system: Mus musculus; assay: Antifibrotic activity in C57BL/6 mouse model of bleomycin-induced lung fibrosis assessed as reduction in CD8+CD69+ T-cells at 50 mg/kg dosed via oral gavage for 14 days by flow cytometry analysis; format: functional, organism-based; conditions: time 14.0 day
[23] = test system: Mus musculus; assay: Antifibrotic activity in C57BL/6 mouse model of bleomycin-induced lung fibrosis assessed as reduction in dendritic cells at 25 mg/kg dosed via oral gavage for 14 days by flow cytometry analysis; format: functional, organism-based; conditions: time 14.0 day
[24] = test system: Mus musculus; assay: Antifibrotic activity in C57BL/6 mouse model of bleomycin-induced lung fibrosis assessed as reduction in weight loss at 50 mg/kg dosed via oral gavage and measured for 7 to 14 days; format: functional, organism-based; conditions: time day 7-14
[25] = test system: Mus musculus; assay: Antifibrotic activity in bleomycin-induced C57BL/6 mouse model of lung fibrosis assessed as reduction in fibroblast differentiation by measuring alpha-SMA at 25 to 50 mg/kg dosed via oral gavage for 14 days by measuring reduction in alpha-SMA protein expression by immunohistochemical analysis; format: functional, organism-based; conditions: dose mg/kg 25-50, time 14.0 day
[26] = test system: A549; assay: Antimigratory activity in human A549 cells assessed as inhibition of TGF-beta1 induced epithelial-mesenchymal transition at 50 uM pretreated with TGF-beta1 for 1 hr followed by compound addition and measured after 24 hrs by scratch wound healing based microscopic analysis; format: functional, cell-based
[27] = test system: Mus musculus; assay: Antifibrotic activity in C57BL/6 mouse model of bleomycin-induced lung fibrosis assessed as reduction in CD8+CD69+ T-cells at 25 mg/kg dosed via oral gavage for 14 days by flow cytometry analysis; format: functional, organism-based; conditions: time 14.0 day
[28] = test system: Mus musculus; assay: Antifibrotic activity in po dosed C57BL/6 mouse model of bleomycin-induced lung fibrosis assessed as reduction in weight loss after 7 to 14 days; format: functional, organism-based; conditions: dose mg/kg 25-50, time day 7-14
[29] = test system: NIH3T3; assay: Antifibrotic activity in mouse NIH3T3 cells assessed as reduction in TGF-beta1 induced myofibroblast differentiation by measuring reduction in alpha-SMA protein expression at 40 uM after 24 hrs by immunofluorescence staining analysis; format: functional, cell-based

O=c1c(O)c(-c2ccccc2)oc2cc(O)cc(O)c12 [GALANGIN]
Activity [1]: Active
Activity [2]: Active
Activity [3]: Active
Activity [4]: Active
Activity [5]: Active
Activity [6]: Active
Activity [7]: Active
Activity [8]: Active
Activity [9]: Active
Activity [10]: Active
Activity [11]: Active
Activity [12]: inactive
Activity [13]: Active
Activity [14]: Active
Activity [15]: Active
Activity [16]: Active
Activity [17]: Toxic
inhibition [18]: Active
Activity [19]: Active
Activity [20]: inactive
Activity [21]: Active
Activity [22]: Active
Activity [23]: inactive
Activity [24]: Active
Activity [25]: Active
Activity [26]: Active
Activity [27]: inactive
Activity [28]: Dose-dependent effect
Activity [29]: Active
